{"source": "patent US20130137760A1", "about": "“GAMBOGIC AMINE, A SELECTIVE TRKA AGONIST WITH NEUROPROTECTIVE ACTIVITY” (EMORY UNIVERSITY, priority 2007, published 2013)", "key": {"[1]": {"test_system": "T17 cells (TrkA stably transfected SN56 cells)", "test": "Cell-based apoptotic assay: protection of TrkA-expressing T17 cells from staurosporine-initiated apoptosis, MR(DEVD)2 caspase-3 dye", "design": "species or system murine", "conditions": "for apoptosis inhibitory activity in T17 cells: 0.5 μM pre-incubation, then 1 μM STS for 9 h, compared with NGF", "text": "In order to identify small molecules that mimic NGF and activate TrkA, we developed a cell-based apoptotic assay using a cell permeable fluorescent dye MR([…])2, which turns red upon caspase-3 cleavage in apoptotic cells. We utilized a murine cell line T17, which was derived from basal forebrain SN56 cells. T17 cells are TrkA stably transfected SN56 cells. The candidates selectively protecting T17 but not SN56 cells from the first round screen can then be subjected to neurite outgrowth assay for the secondary screen. The positive compounds can be analyzed for TrkA tyrosine phosphorylation, Akt and MAP kinases signaling cascade activation.\nT17 cells can be cultured in 96-well plates and preincubated with 10 μM compounds for 30 min, followed by 1 μM staurosporine (STS) treatment for 9 h. MR(DEVD)2 can be introduced to the cells 1 h before examination under fluorescent microscope. The apoptotic cells are red, while live cells have no signal. […] Using the caspase-3-activated fluorescent dye as a visual assay, one can screen the gambogic amine compounds.\nTo compare the apoptosis inhibitory activity of various compounds, one can pre-incubate gambogic amines derivatives (0.5 μM) with T17 and SN56 cells, followed by 1 μM STS for 9 h. Quantitative analysis of the apoptosis inhibitory activities can determine whether the compounds protect SN56 cells from apoptosis.\nT17 cells can be seeded in a 96-well plate at 10,000 cells/well in 100 μl complete medium. Cells can be incubated overnight, followed by 30 min pretreatment with 10 μM compounds in DMSO (10 mM stock concentration from The Spectrum Collection library). The cells can then be treated with 1 μM Staurosporine for 9 h. One h before the termination of the experiment, 10 μM MR(DEVD)2, a cell permeable caspase-3-activated fluorescent dye can be introduced. Cells can be fixed with 4% paraformaldehyde for 15 min. Cells can then be washed with PBS and incubated with 1 μg/ml of Hoechst 33342 for 10 min. Cover slides can then be washed with PBS, mounted, and examined using a fluorescence microscope."}, "hippocampus": {"test_system": "hippocampus", "test": "Kainic acid-elicited neuronal cell death in mouse brain (TUNEL, hippocampus)", "type": "in vivo, C57BL/6 mice", "conditions": "KA alone, quantitative analysis of apoptosis", "text": "Kainic acid (KA) is a potent agonist for the AMPA receptor. Peripheral injections of KA result in recurrent seizures and the subsequent degeneration of select populations of neurons in the hippocampus (Nadler et al., 1980; Schauwecker and Steward, 1997; Sperk et al., 1983). It has been shown that the activation of caspase-3 is a necessary component of KA-induced cell death (Faherty et al., 1999). To explore whether test compounds can block the neurotoxicity initiated by KA, the compounds can be subcutaneously injected (for example, at a concentration of 2 mg/kg) into C57BL/6 mice, followed by 25 mg/kg KA. In 5 days, the mice can be perfused and the brains cut to a thickness of 5 μm and mounted on slides.\nKainic acid (KA) is a potent agonist for the AMPA receptor. Peripheral injections of KA result in recurrent seizures and the subsequent degeneration of select populations of neurons in the hippocampus (Nadler et al., 1980; Schauwecker and Steward, 1997; Sperk et al., 1983). It has been shown that the activation of caspase-3 is a necessary component of KA-induced cell death (Faherty et al., 1999). To explore whether gambogic amines can block the neurotoxicity initiated by KA, one can subcutaneously inject 2 mg/kg of a gambogic amine into C57BL/6 mice, followed by 25 mg/kg KA. In 5 days, the mice can be perfused and the brains were cut to a thickness of 5 μm and mounted on slides. TUNEL staining can reveal whether KA provokes enormous apoptosis in the hippocampus, and whether this effect is substantially diminished by the gambogic amine.\nMale C57BL/6 mice aged of 60 days can be injected subcutaneously (s.c.) with a single dose of either 30% ethanol in saline or KA (25 mg/kg) (Sigma, Mo.) or the gambogic amine (2 mg/kg) followed by KA. Animals can be continually monitored for 2 h for the onset of seizure activity. At 5 days following treatment, animals can be anesthetized and perfused with 4% paraformaldehyde in 0.1 M phosphate buffered saline. Brains can be removed, post-fixed overnight and processed for paraffin embedding. […]"}, "[2]": {"conditions": "Kasibhatla et al., 2005; cited from earlier work"}, "PC12 cells": {"test_system": "PC12 cells", "test": "Neurite outgrowth in PC12 cells", "type": "cell-based", "conditions": "after 5 days of treatment", "procedure": "One of most prominent neurotrophic effects of NGF is to trigger neurite outgrowth in neuronal cells and incur differentiation. […] The cell medium containing the compounds can be replenished every other day. […] The gambogic amine compounds can similarly be evaluated for their ability to induce evident neurite outgrowth in PC12 cells. Dose-dependent assays can reveal whether 10-50 nM of gambogic amines are sufficient to provoke substantial neurite sprouting in PC12 cells."}, "TrkA": {"test_system": "TrkA", "test": "TrkA tyrosine phosphorylation in primary hippocampal neurons, anti-phospho-TrkA Y490 immunoblot", "type": "cell-based", "conditions": "30 min", "text": "NGF binds to receptor TrkA and elicits its dimerization and autophosphorylation on tyrosine residues. Numerous tyrosine residues on TrkA are phosphorylated upon NGF stimulation. For example, Y490 phosphorylation is required for Shc association and activation of MAP kinase signaling cascade. Y751 phosphorylation is essential for PI 3-kinase docking and activation. To evaluate whether gambogic amine compounds can also trigger TrkA tyrosine phosphorylation, one can treat primary hippocampal neurons with various drugs at 0.5 μM for 30 min. The cell lysates can be analyzed by immunoblotting with anti-phospho-TrkA Y490 antibody. […] To explore whether gambogic amines can trigger TrkA dimerization, one can cotransfect GFP-TrkA and HA-TrkA into HEK293 cells, and treat the cells with 0.5 μM gambogic amine for 30 min. Communoprecipitation assays can be used to determine whether gambogic amines provoke TrkA dimerization even more strongly than NGF. One can also evaluate whether the gambogic amines also elicit tyrosine phosphorylation in TrkA but not in TrkB or C receptors."}, "Erk1/2 and Akt": {"test_system": "Erk1/2 and Akt", "test": "Erk1/2 and Akt phosphorylation in T17 cells, immunoblot", "type": "cell-based, murine", "conditions": "30 min", "procedure": "(§1) NGF triggers PI 3-kinase/Akt and Ras/MAP Kinase signaling cascades activation through the TrkA receptor. […] The cell lysates can be analyzed by immunoblotting with anti-phospho-Erk1/2 and phospho-Akt-473 antibodies, respectively. […] One can also extend the assays into primary hippocampal neurons. […] Time course assay with hippocampal neurons can show whether gambogic amines (0.5 μM) elicit Akt phosphorylation after 5 min treatment, and whether Akt activation increases after 10 min and is sustained for 60 min. One can also determine whether the gambogic amines provoke Akt activation in a dose-dependent manner."}, "Akt": {"test_system": "Akt", "test": "Akt activation in primary hippocampal neurons", "type": "cell-based", "procedure": "as §1"}}, "data": [{"compound": "COC(=O)/C(C)=C\\CC12OC(C)(C)C3CC(C=C4C(=O)c5c(OC)c6c(c(CC=C(C)C)c5OC431)OC(C)(CCC=C(C)C)C=C6)C2=O", "note": "(centres unmarked) [dimethyl gambogate]", "values": [{"measurement": "apoptosis inhibitory activity in T17 cells", "setting": "[1]", "result": "strongly suppress apoptosis in T17 cells with protective activities even stronger than NGF"}]}, {"compound": "C=C(C)[C@H]1CN[C@H](C(=O)O)[C@H]1CC(=O)O", "note": "[KA, Kainic acid]", "values": [{"measurement": "cell death in the CA1 region of the hippocampus", "setting": "hippocampus; CA1 region", "result": 47, "unit": "%"}, {"measurement": "cell death in the CA3 region of the hippocampus", "setting": "hippocampus; CA3 region", "result": 57, "unit": "%"}]}, {"compound": "CC(C)=CCC[C@]1(C)C=Cc2c(O)c3c(c(CC=C(C)C)c2O1)O[C@]12C(=C[C@@H]4C[C@H]1C(C)(C)O[C@@]2(C/C=C(/C)C(=O)O)C4=O)C3=O", "note": "[gambogic acid, Gambogic Acid]", "values": [{"measurement": "apoptosis inhibitory activity in T17 cells", "setting": "[1]", "result": "strongly suppress apoptosis in T17 cells with protective activities even stronger than NGF"}, {"measurement": "Kd of association with Transferrin", "setting": "[2]", "result": 2.2, "unit": "µM"}]}, {"compound": "NGF: nerve growth factor, binds mainly TrkA; positive control, from Roche", "values": [{"measurement": "red (apoptotic) cell numbers compared to DMSO control", "setting": "[1]; positive control, 1 μM staurosporine for 9 h, MR(DEVD)2 dye", "result": "substantially decreases the red cell numbers"}, {"measurement": "neurite sprouting in PC12 cells", "setting": "PC12 cells", "result": "pronounced neurite sprouting"}, {"measurement": "TrkA phosphorylation (Y490)", "setting": "TrkA", "result": "induces potent TrkA phosphorylation"}, {"measurement": "Erk1/2 and Akt phosphorylation", "setting": "Erk1/2 and Akt", "result": "stimulates demonstrable Erk1/2 and Akt phosphorylation"}, {"measurement": "Akt activation", "setting": "Akt", "result": "evidently activates Akt"}]}, {"compound": "CC(C)=CCCC1(C)C=Cc2c(O)c3c(c(CC=C(C)C)c2O1)OC12C(=CC4CC1C(C)(C)OC2(C/C=C(/C)C(=O)O)C4O)C3=O", "note": "(centres unmarked) [dihydrogambogic acid]", "values": [{"measurement": "apoptosis inhibitory activity in T17 cells", "setting": "[1]", "result": "strongly suppress apoptosis in T17 cells with protective activities even stronger than NGF"}]}]}
